# The source made the active and inactive calls. The calls are words filed in the database; no cut-off is given here.
# Legend:
# T-24 = test: Antiproliferative activity against human T24 cells assessed as cell growth inhibition by MTT assay; type: functional, cell-based
# MGC-803 [1] = test: Antiproliferative activity against human MGC-803 cells assessed as cell growth inhibition by MTT assay; type: functional, cell-based
# CNE-2 = test: Antiproliferative activity against human CNE-2 cells assessed as cell growth inhibition by MTT assay; type: functional, cell-based
# A2780 = test: Antiproliferative activity against human A2780 cells assessed as cell growth inhibition by MTT assay; type: functional, cell-based
# Homo sapiens [2] = species: Homo sapiens; test: Binding affinity to pBR322 DNA (unknown origin) assessed as DNA intercalation at 20 to 100 uM by electrophoresis assay; details: dose 20-100 µM
# Homo sapiens [3] = species: Homo sapiens; test: Binding affinity to pBR322 DNA (unknown origin) assessed as induced retardation of DNA migration at 20 to 100 uM by gel electrophoresis assay; details: dose 20-100 µM
# [4] = target: T1, DNA topoisomerase 1 (Homo sapiens) (UniProt P11387); test: Inhibition of human DNA topoisomerase 1 assessed as reduction in pBR322 DNA relaxation upto 100 uM by gel electrophoresis method
# T1 sequence (whole entry): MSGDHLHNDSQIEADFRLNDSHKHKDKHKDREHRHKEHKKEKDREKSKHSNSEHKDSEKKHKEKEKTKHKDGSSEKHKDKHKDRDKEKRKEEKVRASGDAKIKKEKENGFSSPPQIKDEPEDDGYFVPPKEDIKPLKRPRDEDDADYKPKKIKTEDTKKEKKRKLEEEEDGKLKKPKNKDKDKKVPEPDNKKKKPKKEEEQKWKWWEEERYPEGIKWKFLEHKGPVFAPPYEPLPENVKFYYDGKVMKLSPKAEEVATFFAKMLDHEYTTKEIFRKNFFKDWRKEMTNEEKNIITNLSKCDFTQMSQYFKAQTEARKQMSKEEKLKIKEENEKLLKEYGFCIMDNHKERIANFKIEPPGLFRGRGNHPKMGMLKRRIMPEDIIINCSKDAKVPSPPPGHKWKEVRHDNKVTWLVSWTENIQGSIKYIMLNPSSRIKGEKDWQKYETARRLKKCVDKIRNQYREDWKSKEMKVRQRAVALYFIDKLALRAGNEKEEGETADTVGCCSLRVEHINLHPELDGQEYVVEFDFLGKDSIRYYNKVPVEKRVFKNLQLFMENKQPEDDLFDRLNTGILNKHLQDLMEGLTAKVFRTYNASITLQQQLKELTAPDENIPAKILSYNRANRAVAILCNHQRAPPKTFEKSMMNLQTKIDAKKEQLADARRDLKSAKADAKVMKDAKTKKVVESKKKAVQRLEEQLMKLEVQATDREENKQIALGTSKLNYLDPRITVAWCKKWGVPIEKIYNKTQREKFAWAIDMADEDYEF
# MGC-803 [5] = test: Antitumor activity against human MGC-803 cells xenografted in nude mouse assessed as reduction in tumor volume growth rate at 4 mg/kg, ip administrated every other day for 21 days relative to control; type: functional; design: scale not given: the % may be the effect or the level left; details: time 21 day
# MGC-803 [6] = test: Antitumor activity against human MGC-803 cells xenografted in nude mouse assessed as reduction in tumor weight at 4 mg/kg, ip administrated every other day for 21 days relative to control; type: functional; design: scale not given: the % may be the effect or the level left; details: time 21 day
# MGC-803 [7] = test: Toxicity in nude mouse xenografted with human MGC-803 cells assessed as morphological changes in liver at 8 mg/kg, ip administrated every other day for 21 days; type: functional, organism-based; details: time 21.0 day
SMILES,IC50 (T-24) [µM],IC50 (MGC-803 [1]) [µM],IC50 (CNE-2) [µM],IC50 (A2780) [µM],Activity (Homo sapiens [2]),Activity (Homo sapiens [3]),inhibition [4],Activity (MGC-803 [5]) [%],Activity (MGC-803 [6]) [%],Activity (MGC-803 [7])
O=C1c2cccc3c(N4CCOCC4)c([N+](=O)[O-])cc(c23)C(=O)N1CCc1ccc2c(c1)OCO2,23.6,23.1,> 50,28.4,–,–,–,–,–,–
O=C1c2cccc3c(N4CCC(N5CCCCC5)CC4)c([N+](=O)[O-])cc(c23)C(=O)N1CCNCCN1C(=O)c2cccc3c(N4CCC(N5CCCCC5)CC4)c([N+](=O)[O-])cc(c23)C1=O,14.8,> 50,9.25,> 50,–,–,–,–,–,–
CC(C)(C)OC(=O)N1CCN(c2c([N+](=O)[O-])cc3c4c(cccc24)C(=O)N(CCNCCN2C(=O)c4cccc5c(N6CCN(C(=O)OC(C)(C)C)CC6)c([N+](=O)[O-])cc(c45)C2=O)C3=O)CC1,> 50,> 50,> 50,> 50,–,–,–,–,–,–
CN1CCN(c2c([N+](=O)[O-])cc3c4c(cccc24)C(=O)N(CCNCCN2C(=O)c4cccc5c(N6CCN(C)CC6)c([N+](=O)[O-])cc(c45)C2=O)C3=O)CC1,0.65,2.05,0.34,0.42,Active,Active,inactive,–,–,–
CN(C)CCN1C(=O)c2cccc3cc([N+](=O)[O-])cc(c23)C1=O [MITONAFIDE],3.25,3.32,3.42,5.22,–,–,–,54.2,34.2,Toxic
CN(C)CCN1C(=O)c2cccc3cc(N)cc(c23)C1=O [AMONAFIDE],7.23,5.25,8.65,11.7,–,–,–,–,–,–
O=C1c2cccc3cc([N+](=O)[O-])cc(c23)C(=O)N1CCNCCN1C(=O)c2cccc3cc([N+](=O)[O-])cc(c23)C1=O,3.45,14.6,4.51,2.79,inactive,inactive,inactive,–,–,–
O=C1c2cccc3c(N4CCCCC4)c([N+](=O)[O-])cc(c23)C(=O)N1CCNCCN1C(=O)c2cccc3c(N4CCCCC4)c([N+](=O)[O-])cc(c23)C1=O,> 50,> 50,> 50,> 50,–,–,–,–,–,–
O=C1c2cccc3c(N4CCOCC4)c([N+](=O)[O-])cc(c23)C(=O)N1CCO,9.34,11.8,16.4,22.8,–,–,–,–,–,–

# Reference: ChEMBL document CHEMBL5252609, “Design, synthesis, and antitumor evaluation of morpholine substituted bisnaphthalimides as DNA targeting agents” (Bioorg Med Chem Lett, 2023)
